Measurements published in patent publication US9029110B2, “Method for producing functional microbially fermented tea extract containing polyphenol derivative” (Kabushiki Kaisha Riverson, priority 2009, dated 2015).

Legend:
[1] = Test of the functions of decreasing visceral fat and increasing adiponectin (method not described); details: as a result of the test, no data shown
PTP1B = PTP1B expression inhibitory effect, Western blotting; assay type: cell-based
Method: (§1) 3T3-L1 adipocytes can be allowed to grow and maintained in a 5% CO2 environment in high-glucose DMEM containing 50 U/ml penicillin, 50 μg/ml streptomycin, and 10% FCS. The 3T3-L1 cells were subcultured in a dish of 3.5 cm in diameter until confluent and then sufficiently differentiated into adipocytes by culture for another 2 days in the presence of insulin (10 μg/ml), dexamethasone (0.25 μM), and IBMX (3-isobutyl-1-methylxanthine) (0.5 mM). Teadenol A (10 μM) or DMSO (vehicle control) was added to the sufficiently differentiated 3T3-L1 adipocytes, and each culture supernatant was collected after 8, 24, 32, and 48 hours. The amount of adiponectin secreted was determined by Western blotting method.
Teadenol A (10 μM) or DMSO (vehicle control) was added to the sufficiently differentiated 3T3-L1 adipocytes. After culture for 8, 24, 32, and 48 hours, the cells were collected, and the amount of PTP1B […] and the amount of α-tubulin were determined by Western blotting method.

3T3-L1 adipocytes = test: Adiponectin secretion promoting effect, Western blotting of culture supernatant; assay type: cell-based; details: for amount of adiponectin secreted (Mean, DMSO control = 100.00): differentiated 3T3-L1 adipocytes, 3 runs
Method: as §1

[2] = stated as 'can be confirmed', no data shown

| SMILES | function on adiponectin [1] | function on visceral fat [1] | PTP1B expression inhibitory activity (PTP1B; statistically significant difference in the samples after 32 hours, 10 μM, 3T3-L1 adipocytes) | amount of adiponectin secreted (Mean, DMSO control = 100.00) (3T3-L1 adipocytes; 10 μM, 8 h) | amount of adiponectin secreted (Mean, DMSO control = 100.00) (3T3-L1 adipocytes; 10 μM, 24 h) | amount of adiponectin secreted (Mean, DMSO control = 100.00) (3T3-L1 adipocytes; 10 μM, 32 h) | amount of adiponectin secreted (Mean, DMSO control = 100.00) (3T3-L1 adipocytes; 10 μM, 48 h) | adiponectin secretion promoting activity (3T3-L1 adipocytes; statistically significant difference in the samples after 24 and 48 hours, 10 μM) | PTP1B expression inhibitory effect (PTP1B; [2]) | adiponectin secretion promoting effect (3T3-L1 adipocytes; [2]) |
| --- | --- | --- | --- | --- | --- | --- | --- | --- | --- | --- |
| C=C1C=C(C(=O)O)O[C@@H]2Cc3c(O)cc(O)cc3O[C@H]12 [Teadenol A, teadenol A] | increasing adiponectin | decreasing visceral fat | effective | 166.00 | 214.67 | 153.33 | 147.67 | effective | – | – |
| C=C1C=C(C(=O)O)O[C@@H]2Cc3c(O)cc(O)cc3O[C@@H]12 [Teadenol B, teadenol B] | – | – | – | – | – | – | – | – | effective | effective |
